In patent publication US8841233B2, “Herbicidal compositions comprising 4-amino-3-chloro-5-fluoro-6-(4-chloro-2-fluoro-3-methoxyphenyl) pyridine-2-carboxylic acid or a derivative thereof and 4-hydroxyphenyl-pyruvate dioxygenase (HPPD) inhibitors” (Dow Agrosciences LLC, priority 2012, dated 2014):

Columns and labels:
Assay in all cases: In-water applied weed control, transplanted paddy rice, greenhouse (Example II)
[1] = tested on: FIMMI; format: in vivo, Fimbristylis miliacea (L.) Vahl
Experimental: (§1) Evaluation of in-Water Applied Herbicidal Mixtures for Weed Control in Transplanted Paddy Rice
(§2) Weed seeds or nutlets of the desired test plant species were planted in puddled soil (mud) prepared by mixing a shredded, non-sterilized mineral soil (50.5 percent silt, 25.5 percent clay, and 24 percent sand, with a pH of about 7.6 and an organic matter content of about 2.9 percent) and water at a 1:1 volumetric ratio. The prepared mud was dispensed in 365 mL aliquots into 16-ounce (oz.) non-perforated plastic pots with a surface area of 86.59 square centimeters (cm^2) leaving a headspace of 3 centimeters (cm) in each pot. Mud was allowed to dry overnight prior to planting or transplanting. Rice seeds were planted in Sun Gro MetroMix® 306 planting mixture, which typically has a pH of 6.0 to 6.8 and an organic matter content of about 30 percent, in plastic plug trays. Seedlings at the second or third leaf stage of growth were transplanted into 840 mL of mud contained in 32-oz. non-perforated plastic pots with a surface area of 86.59 cm^2 4 days prior to herbicide application. The paddy was created by filling the headspace of the pots with 2.5 to 3 cm of water. When required to ensure good germination and healthy plants, a fungicide treatment and/or other chemical or physical treatment was applied. The plants were grown for 4-22 days in a greenhouse with an approximate 14 h photoperiod which was maintained at about 29′C during the day and 26° C. during the night. Nutrients were added as Osmocote® (19:6:12, N:P:K+ minor nutrients) at 2 g per 16-oz. pot and 4 g per 32-oz. pot. Water was added on a regular basis to maintain the paddy flood, and supplemental lighting was provided with overhead metal halide 1000-Watt lamps as necessary. The plants were employed for testing when they reached the first through fourth true leaf stage.
(§3) Treatments consisted of the acid or esters of 4-amino-3-chloro-5-fluoro-6-(4-chloro-2-fluoro-3-methoxy-phenyl)pyridine-2-carboxylic acid (compound A) each formulated as an SC (suspension concentrate) and various herbicidal components alone and in combination. Forms of compound A were applied on an acid equivalent basis.
(§4) Other herbicidal components were applied on an active ingredient basis and included 4-hydroxyphenyl pyruvate dioxygenase (HPPD)-inhibiting herbicides mesotrione formulated as Callisto®, sulcotrione formulated as Mikado®, pyrazolynate formulated as Sunbird® 10% GR, and benzobicyclon formulated as Benzobicyclon 3.5% or technical material.
(§5) Treatment requirements for each compound or herbicidal component were calculated based upon the rates being tested, the concentration of active ingredient or acid equivalent in the formulation, an application volume of 2 mL per component per pot, and an application area of 86.59 cm^2 per pot.
(§6) For formulated compounds, a measured amount was placed in an individual 100 or 200 mL glass vial and was dissolved in a volume of 1.25% (v/v) Agri-Dex® crop oil concentrate to obtain application solutions.
(§7) For technical grade compounds, a weighed amount was placed in an individual 100 to 200 mL glass vial and was dissolved in a volume of acetone to obtain concentrated stock solutions. […] The concentrated stock solutions obtained were diluted with an equivalent volume of an aqueous mixture containing 2.5% (v/v) crop oil concentrate so that the final application solutions contained 1.25% (v/v) crop oil concentrate.
(§8) Applications were made by injecting with a pipetter appropriate amounts of the application solutions, individually and sequentially, into the aqueous layer of the paddy. Control plants were treated in the same manner with the solvent blank. Applications were made so that all treated plant material received the same concentrations of acetone and crop oil concentrate.
(§9) The treated plants and control plants were placed in a greenhouse as described above and water was added as needed to maintain a paddy flood. […]

[2] = tested on: LEFCH; format: in vivo, Leptochloa chinensis (L.) Nees
Experimental: as §1, §2, §3, §4, §5, §6, §7, §8, §9

[3] = tested on: SCPMA; format: in vivo
Experimental: as §1, §2, §3, §4, §5, §6, §7, §8, §9

COc1c(Cl)ccc(-c2nc(C(=O)O)c(Cl)c(N)c2F)c1F [Compound A Acid, 4-amino-3-chloro-6-(4-chloro-2-fluoro-3-methoxyphenyl)-5-fluoropyridine-2-carboxylic acid]
0%: Visual Weed Control (%) - 21 DAA LEFCH Obs ([2]; 8.75 gae/ha) | Visual Weed Control (%) - 21 DAA LEFCH Obs ([2]; 17.5 gae/ha) | Visual Weed Control (%) - 21 DAA SCPMA Obs ([3]; 8.75 gae/ha) | Visual Weed Control (%) - 21 DAA SCPMA Obs ([3]; 17.5 gae/ha) | Visual Weed Control (%) - 21 DAA SCPMA Obs ([3]; 35 gae/ha)
85%: Visual Weed Control (%) - 21 DAA FIMMI Obs ([1]; 17.5 gae/ha) | Visual Weed Control (%) - 21 DAA FIMMI Obs ([1]; 35 gae/ha)

COc1c(Cl)ccc(-c2nc(C(=O)OCc3ccccc3)c(Cl)c(N)c2F)c1F [Compound A Benzyl Ester, benzyl ester of 4-amino-3-chloro-5-fluoro-6-(4-chloro-2-fluoro-3-methoxy-phenyl)pyridine-2-carboxylic acid]
0%: Visual Weed Control (%) - 21 DAA SCPMA Obs ([3]; 4.38 gae/ha) | Visual Weed Control (%) - 21 DAA SCPMA Obs ([3]; 8 gae/ha) | Visual Weed Control (%) - 21 DAA SCPMA Obs ([3]; 8.75 gae/ha) | Visual Weed Control (%) - 21 DAA SCPMA Obs ([3]; 16 gae/ha) | Visual Weed Control (%) - 21 DAA SCPMA Obs ([3]; 17.5 gae/ha) | Visual Weed Control (%) - 21 DAA SCPMA Obs ([3]; 32 gae/ha) | Visual Weed Control (%) - 21 DAA SCPMA Obs ([3]; 48 gae/ha) | Visual Weed Control (%) - 21 DAA SCPMA Obs ([3]; 96 gae/ha)
15%: Visual Weed Control (%) - 21 DAA FIMMI Obs ([1]; 8 gae/ha) | Visual Weed Control (%) - 21 DAA LEFCH Obs ([2]; 4.38 gae/ha) | Visual Weed Control (%) - 21 DAA LEFCH Obs ([2]; 8.75 gae/ha)
65%: Visual Weed Control (%) - 21 DAA FIMMI Obs ([1]; 16 gae/ha)
